This is an account of results in patent US20250109104A1, “SQUARAINE FLUOROPHORES” (The General Hospital Corporation, priority 2022, published 2025).

Data set [1] concerns cancer. The conditions noted are these: in vivo; cited from earlier work.
For data set [2], the system named is tumors. The data set is described as follows: Intraoperative NIR imaging for fluorescence guided surgery (FGS) in tumor-bearing mice. Type of data set: in vivo. Here is the method:
FIG. 5 depicts intraoperative imaging of OCTL14 for fluorescence guided surgery (FGS). (a) FGS using the squaraine. Tumor-bearing mice were intravenously injected with 100 nmol of OCTL14. FGS was performed 6 h post-injection. The yellow circle indicates the lesions for which intraoperative image-guided surgeries were performed. The middle panels show the tumor locations before/after surgery and resected tumors of different sizes. Scale bars=1 cm. (b) Clinical impact of the use of OCTL14. The number of tumors detected using color images only was compared to those detected using NIR imaging by experienced surgeons.
Structure-inherent targeting: Squaraines are selectively taken up by cancer cells via organic cation transporters (OCTs), overexpressed by cancer cells (FIG. 4). This high affinity is mediated by the unique structure of the molecule. This was achieved this by introducing an asymmetric molecular conformation and surface charges. In this way, squaraines can be up-taken rapidly via transporter and selectively accumulate in cancer cells, not normal cells. In addition, we have shown that once they are taken up by cancer cells, squaraines can stay in lysosomes for hours for durable imaging. This feature is critical to have a clear contrast between cancerous and normal tissue for clear cancer imaging during surgery or medical procedures.

As for `CC1(C)C(/C=C/C=C/C=C/C=C2\N(CCCCS(=O)(=O)O)c3ccc4ccccc4c3C2(C)C)=[N+](CCCCS(=O)(=O)[O-])c2ccc3ccccc3c21` [ICG, indocyanine green], in data set [1], the blood half-life result was “short blood half-life” and the cancer targeting capability result is reported as “no specific cancer targeting capability”.
For `Br.C[N+]1=C(/C=C2\C(=O)C(/C=C3/N(CCC[N+](C)(C)C)c4ccc(F)cc4C3(C)C)=C2[O-])C(C)(C)c2ccccc21.[I-]` [OCTL14, Mono ((Z)-2-((E)-(5-fluoro-3,3-dimethyl-1-(3-(trimethylammonio)propyl)indolin-2-ylidene)methyl)-3-oxo-4-((1,3,3-trimethyl-3H-indol-1-ium-2-yl)methylene)cyclobut-1-enolate) mono bromide monoiodide], the “localization of cancer tissues” value in data set [2] (6 h post-injection, 100 nmol intravenously, tumor-bearing mice) is “precise localization of cancer tissues”. In data set [2] (FGS 6 h post-injection), the “resection of tumors under image guidance” value was “complete resection of tumors” and the “residual tumor after FGS” value is given as “no residual tumor”.
